ChEMBL document CHEMBL1201862, “PubChem BioAssay data set” (2004)
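48-hour exposure; five concentrations; linearly interpolated endpoints. GI50 is the concentration that inhibits growth by half.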 Activity calls are given as the source filed them. Rule as the data show it: active = GI50 up to about 1.1 µM and inactive = higher.

What was measured:
Experiment in all cases: inhibition of tumour cell growth, NCI panel, 48 h
SNB-78 = tested on: SNB-78
LXFL 529 = tested on: LXFL 529
KM-20L2 = tested on: KM-20L2
XF498 = tested on: XF498
RXF 631 = tested on: RXF 631
DMS-114 = tested on: DMS-114
HOP-18 = tested on: HOP-18
NCI/ADR-RES = tested on: NCI/ADR-RES
DU-145 = tested on: DU-145

SMILES | GI50 (SNB-78) | GI50 (LXFL 529) | GI50 (KM-20L2) | GI50 (XF498) | GI50 (RXF 631) | GI50 (DMS-114) | GI50 (HOP-18) | GI50 (NCI/ADR-RES) | GI50 (DU-145)
Cc1ccc(C)c(NC(=O)CC2C(=O)Nc3ccccc3S2(=O)=O)c1 (centres undefined) | 68.4 µM (inactive) | > 100 µM (inactive) | > 100 µM (inactive) | 27.8 µM (inactive) | > 100 µM (inactive) | 45.4 µM (inactive) |  |  | 
O=[N+]([O-])c1ccc2nc(/C(=N/Nc3ccccc3)C(O)c3ccco3)c(O)nc2c1 (centres undefined) |  | 42.1 µM (inactive) | 24.5 µM (inactive) | > 100 µM (inactive) | > 100 µM (inactive) | 40 µM (inactive) |  |  | 
CNCc1cc(OC)ccc1-c1ccc(OC)c(OC)c1OC | > 100 µM (inactive) | > 100 µM (inactive) | > 100 µM (inactive) | 85.3 µM (inactive) | > 100 µM (inactive) | 60.8 µM (inactive) | > 32.5 µM (inactive) |  | 
O=c1[nH]c(Br)nc2c(Br)c[nH]c12 | > 100 µM (inactive) | > 100 µM (inactive) | > 100 µM (inactive) | > 100 µM (inactive) | > 100 µM (inactive) | > 100 µM (inactive) | > 100 µM (inactive) |  | 
N#Cc1cc(NC(=O)c2ccccc2)c(=O)n2c1[nH]c1ccccc12 | 35 µM (inactive) | 33 µM (inactive) | 32.7 µM (inactive) | 31.4 µM (inactive) | 46.9 µM (inactive) | 23 µM (inactive) | 7.45 µM (inactive) |  | 
Cc1nc(-n2nc(-c3ccccc3)cc2-c2ccccc2)sc1C(=O)CC(=O)C(=O)Nc1ccc(O)cc1 | > 100 µM (inactive) | > 100 µM (inactive) | > 100 µM (inactive) |  | > 100 µM (inactive) | > 100 µM (inactive) | > 100 µM (inactive) |  | 
CCS(CC)(CC)CC1CCCC2=CCC(P(=O)(c3ccccc3)c3ccccc3)CC21 (centres undefined) | 15.4 µM (inactive) | 9.64 µM (inactive) | 11.5 µM (inactive) | 5.81 µM (inactive) | 13.6 µM (inactive) | 8.81 µM (inactive) | 23.8 µM (inactive) |  | 
O=C(O)c1cc(=O)c2[nH]c3ccccc3c2s1 | > 100 µM (inactive) | > 100 µM (inactive) | > 100 µM (inactive) | > 100 µM (inactive) | > 100 µM (inactive) | > 100 µM (inactive) |  |  | 
CC1(C)CC(=O)C=C(NC(=O)c2ccccc2)C1 | > 100 µM (inactive) | > 100 µM (inactive) |  | > 100 µM (inactive) | > 100 µM (inactive) | > 100 µM (inactive) |  |  | 
O=C1OC(c2ccccc2)=N/C1=C/NC(CO)C(=O)O (centres undefined) | > 100 µM (inactive) | > 100 µM (inactive) | > 100 µM (inactive) | > 100 µM (inactive) | > 100 µM (inactive) | > 100 µM (inactive) | 45.6 µM (inactive) |  | 
COc1ccc(C[C@H](N)C(=O)NC2C(CO)OC(n3cnc4c(N(C)C)ncnc43)C2O)cc1 (some centres undefined) | 0.213 µM (active) | 0.121 µM (active) | 0.513 µM (active) | 0.0458 µM (active) | 1 µM (active) | 0.17 µM (active) | 2.13 µM (inactive) |  | 
Oc1ccc([Te]CCNCC[Te]c2ccc(O)cc2)cc1 | 22 µM (inactive) | 3.41 µM (inactive) | 14.4 µM (inactive) | 5.11 µM (inactive) | 6.05 µM (inactive) |  | 26.4 µM (inactive) |  | 
CC1=Nc2ccccc2C1C(Cc1ccccc1N)c1c(C)[nH]c2ccccc12 (centres undefined) |  | 16 µM (inactive) | 15 µM (inactive) | 18.5 µM (inactive) | 18.2 µM (inactive) | 19.2 µM (inactive) | 12.4 µM (inactive) |  | 
COc1cc2ccnc3c2c(c1OC)-c1coc(SC)c1-3 | > 100 µM (inactive) | 78.7 µM (inactive) | > 100 µM (inactive) |  | > 100 µM (inactive) |  | 38.6 µM (inactive) |  | 
Clc1ccc2nc(-c3ccccc3)nc(Cl)c2c1 | 88.1 µM (inactive) | 52.7 µM (inactive) | > 100 µM (inactive) |  | 29.6 µM (inactive) | 39.3 µM (inactive) |  |  | 
COc1ccc2[nH]c3c(c2c1)CCN(C)CC3 | > 100 µM (inactive) |  | > 100 µM (inactive) | > 100 µM (inactive) | > 100 µM (inactive) |  | > 100 µM (inactive) |  | 
COc1ccc2c(=O)cc(-c3ccc(OC)c(OC)c3OC)oc2c1 |  | 40.4 µM (inactive) | 26.5 µM (inactive) | 46.7 µM (inactive) | 97.3 µM (inactive) | 76.2 µM (inactive) |  | 28.4 µM (inactive) | > 100 µM (inactive)
